Converted amounts (≈) assume the structure as drawn. Read-outs that look alike come from different tables or passages of the source.
Legend:
Format in all cases: cell-based
E. coli BW25113 = experiment: MIC, microdilution in 96-well plates; conditions: Escherichia coli, BW25113, B: E. coli BW25113
Experimental: (§1) A microdilution method in 96-well plates was used and the MIC protocol established by the Clinical Laboratory Standards Institute was followed. From a growing subculture, a 1:10000 inoculum of each strain in Luria-Bertani media was prepared and aliquoted 100 μL in 4 columns of wells, except for the top row wells, which contained 200 μL of inoculum. A solution of gyramide C2 was aliquoted into 3 of the wells containing 200 μL and DMSO was added to the 4th well. The liquid in each of wells was mixed with a multi-channel pipet and 100 μL was transferred to the next well and mixed. The 2-fold dilution was continued down the 96-well plate until 100 μL was left, which was discarded. The plates were incubated at 37° C. with shaking for 16-18 hours. The MIC was determined as the lowest concentration that inhibited growth and had no turbidity by visual inspection.
(§2) Minimum inhibitory concentrations of various gyramide compounds against 20 strains of bacteria were determined using the procedure described above.

Edwardsiella tarda = experiment: MIC, microdilution in 96-well plates; conditions: D: Edwardsiella tarda
Experimental: as §1, §2

E. coli JW5503 (deltolC) = experiment: MIC, 20-strain panel; conditions: Escherichia coli, C: E. coli JW5503 (deltolC)
Experimental: as §1, §2

E. coli MG1655 = experiment: MIC, 20-strain panel; conditions: Escherichia coli, MG1655, A: E. coli MG1655
Experimental: as §1, §2

[1] = tested on: Klebsiella pneumoniae subsp. pneumoniae; experiment: MIC, 20-strain panel; conditions: E: Klebsiella pneumoniae subsp. pneumoniae
Experimental: as §1, §2

[2] = tested on: Salmonella enterica subsp. enterica typhimurium; experiment: MIC, 20-strain panel; conditions: F: Salmonella enterica subsp. enterica Typhimurium
Experimental: as §1, §2

Shigella flexneri = experiment: MIC, 20-strain panel; conditions: G: Shigella flexneri
Experimental: as §1, §2

[3] = tested on: Staphylococcus aureus subsp. aureus; experiment: MIC, 20-strain panel; conditions: H: Staphylococcus aureus subsp. aureus
Experimental: as §1, §2

[4] = tested on: Staphylococcus epidermidis; experiment: MIC, 20-strain panel
Experimental: as §1, §2

[5] = tested on: Staphylococcus saprophyticus subsp. saprophyticus; experiment: MIC, 20-strain panel
Experimental: as §1, §2

Streptococcus agalactiae = experiment: MIC, 20-strain panel
Experimental: as §1, §2

Streptococcus pyogenes = experiment: MIC, 20-strain panel
Experimental: as §1, §2

SMILES | MIC (E. coli BW25113; read-out: MIC) [µg/mL] | MIC (Edwardsiella tarda) [µg/mL] | MIC (E. coli JW5503 (deltolC)) [µg/mL] | MIC (E. coli MG1655; read-out: MIC) [µg/mL] | MIC [1] [µg/mL] | MIC [2] [µg/mL] | MIC (Shigella flexneri) [µg/mL] | MIC ([3]; read-out: MIC) [µg/mL] | MIC [4] [µg/mL] | MIC [5] [µg/mL] | MIC (Streptococcus agalactiae) [µg/mL] | MIC (Streptococcus pyogenes) [µg/mL] | MIC (E. coli BW25113) [µg/mL] | MIC (E. coli MG1655) [µg/mL] | MIC [3] [µg/mL]
CC(=O)c1cc(S(=O)(=O)N[C@@H]2CCN(Cc3ccc(OC(C)C)cc3)C2)ccc1C [Compound 1] | > 8 | > 8 | > 8 | > 8 | > 8 | > 8 | > 8 | > 8 | > 8 | > 8 | > 8 | > 8 | – | – | –
N#Cc1cccc(S(=O)(=O)N[C@@H]2CCN(Cc3ccc(OC(F)F)cc3)C2)c1 [Compound 2] | > 8 | > 8 | 8 (≈ 19.6 µM) | > 8 | > 8 | > 8 | > 8 | > 8 | > 8 | > 8 | > 8 | > 8 | – | – | –
O=S(=O)(N[C@@H]1CCN(Cc2ccc(-n3ccnn3)cc2)C1)c1cccc(C(F)(F)F)c1 [Compound 3] | > 8 | > 8 | 4 (≈ 8.86 µM) | > 8 | > 8 | > 8 | > 8 | > 8 | > 8 | > 8 | > 8 | > 8 | – | – | –
CC(C)Oc1ccc(CN2CC[C@@H](NS(=O)(=O)c3cc(C(F)(F)F)ccc3F)C2)cc1 [Compound 4] | > 8 | > 8 | 0.5 (≈ 1.09 µM) | > 8 | > 8 | > 8 | > 8 | > 8 | > 8 | > 8 | > 8 | > 8 | – | – | –
O=S(=O)(N[C@@H]1CCN(Cc2ccc(OC3CCC3)cc2)C1)c1cccc(C(F)(F)F)c1 [Compound 5] | ~8 (≈ 17.6 µM) | > 8 | 0.125 (≈ 0.275 µM) | > 8 | > 8 | 8 (≈ 17.6 µM) | > 8 | > 8 | > 8 | > 8 | > 8 | > 8 | – | – | –
O=S(=O)(N[C@@H]1CCN(Cc2ccc(OC(F)(F)F)cc2)C1)c1cccc(C(F)(F)F)c1 [Compound 6] | > 8 | > 8 | 4 (≈ 8.54 µM) | > 8 | > 8 | > 8 | > 8 | > 8 | > 8 | > 8 | > 8 | > 8 | – | – | –
N#Cc1cccc(S(=O)(=O)N[C@@H]2CCN(Cc3ccc(-n4ccnn4)cc3)C2)c1 [Compound 7] | > 8 | > 8 | 8 (≈ 19.6 µM) | > 8 | > 8 | > 8 | > 8 | > 8 | > 8 | > 8 | > 8 | > 8 | – | – | –
N#Cc1cccc(S(=O)(=O)N[C@@H]2CCN(Cc3ccc(OCC(F)F)cc3)C2)c1 [Compound 8] | > 8 | > 8 | 2 (≈ 4.75 µM) | > 8 | > 8 | 8 (≈ 19 µM) | > 8 | > 8 | > 8 | > 8 | > 8 | > 8 | – | – | –
N#Cc1cccc(S(=O)(=O)N[C@@H]2CCN(Cc3ccc4c(c3)OCCO4)C2)c1 [Compound 9] | > 8 | > 8 | > 8 | > 8 | > 8 | > 8 | > 8 | > 8 | > 8 | > 8 | > 8 | > 8 | – | – | –
CC(C)Oc1ccc(CN2CC[C@@H](NS(=O)(=O)c3cc(C#N)ccc3Cl)C2)cc1 [Compound 10] | > 8 | > 8 | 0.25 (≈ 0.576 µM) | > 8 | > 8 | 8 (≈ 18.4 µM) | > 8 | > 8 | > 8 | > 8 | > 8 | > 8 | – | – | –
N#Cc1ccc(Cl)c(S(=O)(=O)N[C@@H]2CCN(Cc3ccc(-c4ccccc4)cc3)C2)c1 [Compound 11] | – | > 8 | < 0.062 | – | > 8 | 4 (≈ 8.85 µM) | > 8 | – | > 8 | > 8 | > 8 | > 8 | ~8 (≈ 17.7 µM) | > 8 | > 8
N#Cc1cccc(S(=O)(=O)N[C@@H]2CCN(Cc3ccc(-c4nccs4)cc3)C2)c1 [Compound 12] | > 8 | > 8 | 2 (≈ 4.71 µM) | > 8 | > 8 | > 8 | > 8 | > 8 | > 8 | > 8 | > 8 | > 8 | – | – | –
CC(C)(C)Oc1ccc(CN2CC[C@@H](NS(=O)(=O)c3cccc(C#N)c3)C2)cc1 [Compound 13] | > 8 | > 8 | 8 (≈ 19.3 µM) | > 8 | > 8 | > 8 | > 8 | > 8 | > 8 | > 8 | > 8 | > 8 | – | – | –
O=S(=O)(N[C@@H]1CCN(Cc2ccc(-c3ccncc3)cc2)C1)c1cccc(C(F)(F)F)c1 [Compound 14] | > 8 | > 8 | 2 (≈ 4.33 µM) | > 8 | > 8 | > 8 | > 8 | > 8 | > 8 | > 8 | > 8 | > 8 | – | – | –
O=S(=O)(N[C@@H]1CCN(Cc2ccc(-c3ccncc3)cc2)C1)c1cccc(OC(F)(F)F)c1 [Compound 15] | > 8 | > 8 | 4 (≈ 8.38 µM) | > 8 | > 8 | > 8 | > 8 | > 8 | > 8 | > 8 | > 8 | > 8 | – | – | –
O=S(=O)(N[C@@H]1CCN(Cc2ccc(-c3ccccc3)cc2)C1)c1ncc[nH]1 [Compound 16] | > 8 | > 8 | 2 (≈ 5.23 µM) | > 8 | > 8 | 8 (≈ 20.9 µM) | > 8 | > 8 | > 8 | > 8 | > 8 | > 8 | – | – | –
N#Cc1cccc(S(=O)(=O)N[C@@H]2CCN(Cc3ccc(OC(F)(F)F)cc3)C2)c1 [Compound 17] | > 8 | > 8 | 8 (≈ 18.8 µM) | > 8 | > 8 | > 8 | > 8 | > 8 | > 8 | > 8 | > 8 | > 8 | – | – | –
CC(C)Oc1ccc(CN2CC[C@@H](NS(=O)(=O)c3cccc(C(F)(F)F)c3)C2)cc1 [Compound 18] | > 8 | > 8 | 0.5 (≈ 1.13 µM) | > 8 | > 8 | 8 (≈ 18.1 µM) | > 8 | > 8 | > 8 | > 8 | > 8 | > 8 | – | – | –
N#Cc1cc(S(=O)(=O)N[C@@H]2CCN(Cc3ccc(-c4ccccc4)cc3)C2)ccc1F [Compound 19] | > 8 | > 8 | 0.25 (≈ 0.574 µM) | > 8 | > 8 | 4 (≈ 9.18 µM) | > 8 | > 8 | > 8 | > 8 | > 8 | > 8 | – | – | –
N#Cc1cccc(S(=O)(=O)N[C@@H]2CCN(Cc3ccc(SC(F)(F)F)cc3)C2)c1 [Compound 20] | > 8 | > 8 | 8 (≈ 18.1 µM) | > 8 | > 8 | > 8 | > 8 | > 8 | > 8 | > 8 | > 8 | > 8 | – | – | –
O=S(=O)(N[C@@H]1CCN(Cc2ccc(-n3cccn3)cc2)C1)c1cccc(OC(F)(F)F)c1 [Compound 21] | > 8 | > 8 | 2 (≈ 4.29 µM) | > 8 | > 8 | > 8 | > 8 | 8 (≈ 17.1 µM) | 2 (≈ 4.29 µM) | > 8 | > 8 | > 8 | – | – | –
